From US20250241894A1, “TREATMENT OF MENTAL DISORDERS” (GH RESEARCH IRELAND LIMITED, priority 2022, published 2025)

Key:
[1] = Pharmacokinetics of 5-MeO-DMT and bufotenine after a single inhaled dose; assay type: in vivo, human; conditions: 15 minutes after administration of 5-MeO-DMT
Procedure: Blood samples were obtained at 1; 2; 4; 7; 10; 15; 20; 30; 45 min and 1; 1.5; 2; 3; 4 hours after administration.
PK parameters were generated by algebraic analysis of the concentration versus time plots for each individual. The analysis was carried out using the software Phoenix WinNonlin 6.3.

human hepatocytes [2] = experiment: Metabolism identification study in human hepatocytes; conditions: for Relative Proportion of compounds identified: 5-MeO-DMT free base 10 μM, up to 120 minutes
Procedure: For incubations with cryopreserved hepatocytes, the 2 mM stock solution was diluted with Leibovitz L-15 medium to a concentration of 20 μM or 2 μM. An aliquot (250 μL) of the 20 μM and 2 μM test substance formulations was added to each hepatocyte incubation sample (250 μL), as appropriate, so that the final test substance concentration in the incubations was 10 μM or 1 μM, respectively, and incubations contained less than 1% (v/v) solvent.
Incubations were performed at ca. 37° C. in a shaking water bath (total incubation volume 0.5 mL). For 1 μM, incubations were terminated after 0, 5, 10, 20, 30, 60 and 120 minutes, by the addition of ice-cold acetonitrile (0.5 mL).
The samples were vortex mixed and centrifuged at ca 13,000 rpm for 10 minutes at room temperature. Following centrifugation, the protein-free supernatants were removed for analysis.
Blank control incubations were carried out with Leibovitz L-15 medium in place of the test substance. No cells control samples were performed with Leibovitz L-15 medium in place of hepatocytes. Aliquots of the blank control samples were taken at 120 minutes, while no cells control samples were taken at 0, 30 and 120 for 1 μM incubations and at 0 and 120 minutes for 10 μM incubations.
All 1 μM incubations were performed in duplicate, while all 10 μM incubations were performed in singlet. All samples were stored at −80° C. (nominal) prior to analysis.
Prior to sample analysis a 100 μL aliquot of each sample was evaporated to near dryness under a steady stream of nitrogen at room temperature, and subsequently reconstituted in 50 μL of mobile phase A (0.1% formic acid in water). Each sample (0, 30 and 120-minute, 10 μM) was analysed using accurate mass LC-MS to determine relative levels of parent compound at each time-point, and determine the profile of metabolites formed. Appropriate blank and control samples were also analysed. The 10 and 60-minute, 10 μM incubation samples were not analysed and were stored at −80° C. (nominal).
Data were interrogated for the presence of metabolites by comparison of retention times with the test substance reference standard and based on the accurate masses of potential metabolites using screening software (UNIFI version 1.9.4), and user defined search parameters. To confirm a suspected metabolite, the measured accurate mass of the peak detected in the sample used for structural elucidation had to be within 5 ppm of the theoretical mass in order to confirm the molecular formula.

human hepatocytes [3] = experiment: Metabolic stability in Hμrel human hepatocyte co-culture assay
Water solubility = assay type: physicochemical
[4] = rat; cited from earlier work
human plasma protein = experiment: Binding of 5-MIAA to human plasma protein; assay type: in vitro ADME
Procedure: Binding to human plasma protein was determined. Reported are the unbound fraction (fu) for three replicates as well as the mean unbound fraction, the standard deviation and the mean % recovery (Table 8).

## CN(C)CCc1c[nH]c2ccc(O)cc12 [bufotenine, Bufotenine]
[1]
  Detection in human serum: In no case is it detected
Human hepatocytes [2]
  Relative Proportion of compounds identified: 5%

## COc1ccc2[nH]cc(CCO)c2c1 [5-methoxytryptophol, 5-Methoxyindole-3-ethanol]
Human hepatocytes [3]; hepatocytes
  Metabolic turnover: high metabolic turnover
  Time to complete disappearance: 24 h
Human hepatocytes [2]
  Relative Proportion of compounds identified: 25%
  Presence in subsequent assays: failed to detect

## CN(C)CCc1c[nH]c2ccc(O[C@@H]3O[C@H](C(=O)O)[C@@H](O)[C@H](O)[C@H]3O)cc12 [Bufotenine glucuronide]
Human hepatocytes [2]
  Detection in the hepatocyte assay: not detected

## COc1ccc2[nH]cc(CC[N+](C)(C)[O-])c2c1 [5-MeO-DMT-N-oxide]
Water solubility
  Water solubility: water soluble
Human hepatocytes [2]
  Relative Proportion of compounds identified: 1%
[4]
  Excretion: rapid excretion

## 5-Methoxyindole acetic acid [5-MIAA]
Human plasma protein
  Plasma binding (mean fraction unbound): ~50%
Human plasma protein; assuming glomerular filtration rate 90-120 ml/min
  Time until removed from circulation for urinary excretion: 1 to 2 h
Human hepatocytes [3]; after 72 h, hepatocytes, 1 and 10 μM
  Remaining abundance: 75-82%
Human hepatocytes [3]; hepatocytes
  Metabolic turnover: low metabolic turnover
Human hepatocytes [3]; stromal cells
  Disappearance with stromal cell controls: no disappearance
Human hepatocytes [2]
  Presence in subsequent assays: predominant metabolite
